Consider 31 molecules from US11034692B1 (Genentech, Inc., priority 2017, dated 2021).

In general, Ki refers to a dissociation constant, usually derived from enzyme kinetics or from competition with a known ligand.

Sequence of HPK1 (Q92918 whole entry, looked up): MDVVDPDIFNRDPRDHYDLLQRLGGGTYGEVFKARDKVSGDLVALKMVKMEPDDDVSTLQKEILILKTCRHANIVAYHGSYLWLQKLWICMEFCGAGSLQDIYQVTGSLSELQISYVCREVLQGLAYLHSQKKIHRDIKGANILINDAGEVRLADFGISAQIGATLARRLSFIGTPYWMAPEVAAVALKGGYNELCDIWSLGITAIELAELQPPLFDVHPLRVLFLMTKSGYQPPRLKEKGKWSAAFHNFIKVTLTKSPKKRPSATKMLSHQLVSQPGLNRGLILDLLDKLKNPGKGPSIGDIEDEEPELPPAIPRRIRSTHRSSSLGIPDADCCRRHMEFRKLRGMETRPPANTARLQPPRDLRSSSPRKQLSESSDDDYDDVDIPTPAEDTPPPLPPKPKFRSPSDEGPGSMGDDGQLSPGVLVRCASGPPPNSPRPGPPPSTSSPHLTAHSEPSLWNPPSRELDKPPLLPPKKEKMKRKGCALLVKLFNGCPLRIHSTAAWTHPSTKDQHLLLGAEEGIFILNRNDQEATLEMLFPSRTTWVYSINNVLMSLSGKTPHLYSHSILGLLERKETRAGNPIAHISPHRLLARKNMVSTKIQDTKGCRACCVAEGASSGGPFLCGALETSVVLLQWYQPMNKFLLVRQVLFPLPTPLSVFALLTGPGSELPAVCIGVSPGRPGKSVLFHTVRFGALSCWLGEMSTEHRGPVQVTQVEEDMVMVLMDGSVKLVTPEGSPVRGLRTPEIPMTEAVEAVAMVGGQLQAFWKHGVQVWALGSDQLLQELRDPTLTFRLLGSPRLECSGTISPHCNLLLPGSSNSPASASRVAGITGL

One experiment addresses HPK1 (Homo sapiens, UniProt Q92918). In words: HPK1 Lantha Binding Assay ("Lanth"). The conditions noted are these: Table B1-1, read-out: HPK1 Ki (μM) (Lanth). In outline:
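Compounds in an 11-point 5-fold series were preincubated 1 h at 23 C with 2 nM kinase plus 2 nM Eu-anti-GST antibody. Then 15 nM Tracer222 was added for another hour, and time-resolved FRET was read at 665/615 nm. Ki values come from a Morrison tight-binding model that uses the tracer Kd.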
With `Cc1ccncc1-c1cc2cc(NC(=O)[C@H]3C[C@]34CCN(S(C)(=O)=O)C4)ncc2c(N)n1` (racemic) [Compound 149, (±)-cis-N-(8-amino-6-(4-methylpyridin-3-yl)-2,7-naphthyridin-3-yl)-5-(methylsulfonyl)-5-azaspiro[2.4]heptane-1-carboxamide], the Ki worked out at 0.78 nM.
Still for that read-out and setting: next, `Cc1ccncc1-c1cc2cc(NC3CCNC3)ncc2c(N)n1` (racemic) [Compound 120, (±)-3-(4-methyl-3-pyridyl)-N6-pyrrolidin-3-yl-2,7-naphthyridine-1,6-diamine]: 2400 nM; `Cc1ccncc1-c1cc2cc(NC(=O)[C@@H]3C[C@@H]3C(=O)N(C)C)ncc2c(N)n1` (racemic) [Compound 136, (±)-cis-N1-(8-amino-6-(4-methylpyridin-3-yl)-2,7-naphthyridin-3-yl)-N2,N2-dimethylcyclopropane-1,2-dicarboxamide]: 130 nM.
Consider `Cc1ccncc1-c1cc2cc(Nc3cnn([C@H]4CCN(C5COC5)C[C@@H]4O)c3)ncc2c(N)n1` (racemic) [Compound 220, (+/−)-trans-4-(4-(8-amino-6-(4-methylpyridin-3-yl)-2,7-naphthyridin-3-ylamino)-1H-pyrazol-1-yl)-1-(oxetan-3-yl)piperidin-3-ol], for which the Ki amounted to 0.592 nM.
On the same count and under the same terms, as for `Cc1ccncc1-c1cc2cc(NC(=O)[C@@H]3C[C@H]3CC#N)ncc2c(N)n1` (racemic) [Compound 212, (+/−)-trans-N-(8-amino-6-(4-methylpyridin-3-yl)-2,7-naphthyridin-3-yl)-2-(cyanomethyl)cyclopropanecarboxamide], the figure is 0.685 nM.
For `Cc1ccncc1-c1cc2cc(NC(=O)Nc3cnn(C(C)C#N)c3)ncc2c(N)n1` (racemic) [Compound 178, 1-[8-amino-6-(4-methyl-3-pyridyl)-2,7-naphthyridin-3-yl]-3-[1-(1-cyanoethyl)pyrazol-4-yl]urea], the Ki is 0.25 nM.
On the same count and under the same terms, next, `Cc1ccncc1-c1cc2cc(NC(=O)[C@@H]3C[C@H]3c3cccnc3)ncc2c(N)n1` (racemic) [Compound 131, (±)-trans-N-[8-amino-6-(4-methyl-3-pyridyl)-2,7-naphthyridin-3-yl]-2-(3-pyridyl)cyclopropane carboxamide]: 0.31 nM.
On to `CCNC(=O)[C@H]1C[C@H]1C(=O)Nc1cc2cc(-c3cnccc3C)nc(N)c2cn1` (racemic) [Compound 137, (±)-(cis)-N1-(8-amino-6-(4-methylpyridin-3-yl)-2,7-naphthyridin-3-yl)-N2-ethylcyclopropane-1,2-dicarboxamide], for which the inhibition constant (Ki) was 110 nM.
Regarding `CNC(=O)c1cc(C)c(-c2cc3cc(NC(=O)[C@H]4C[C@@H]4c4cnn(C)c4)ncc3c(N)n2)cn1` (racemic) [Compound 346, (±)-5-(1-amino-6-((trans)-2-(1-methyl-1H-pyrazol-4-yl)cyclopropane-1-carboxamido)-2,7-naphthyridin-3-yl)-N,4-dimethylpicolinamide], the inhibition constant Ki was determined as 2.44 nM.
With `CC(C)c1[nH]ncc1-c1cc2cc(NC(=O)[C@@H]3C[C@H]3C#N)ncc2c(N)n1` (racemic) [Compound 114, (±)-trans-N-(8-amino-6-(5-isopropyl-1H-pyrazol-4-yl)-2,7-naphthyridin-3-yl)-2-cyanocyclopropane-1-carboxamide], the Ki is 2.24 nM.
Same read-out and setting: as for `COc1ccc(Cn2cncc2[C@@H]2C[C@H]2C(=O)Nc2cc3cc(-c4cnccc4C)nc(N)c3cn2)cc1` (racemic) [Compound 145, (±)-trans-N-[8-amino-6-(4-methyl-3-pyridyl)-2,7-naphthyridin-3-yl]-2-[3-[(4-methoxyphenyl)methyl]imidazol-4-yl]cyclopropanecarboxamide], the figure is 2 nM; as for `COc1cc(-c2cc3cc(NC(=O)[C@@H]4C[C@@H]4F)ncc3c(N)n2)c(C)cn1` (racemic) [Compound 55, cis-N-(8-amino-6-(2-methoxy-5-methylpyridin-4-yl)-2,7-naphthyridin-3-yl)-2-fluorocyclopropanecarboxamide], 6.4 nM.
The same measure, in the same setting: next, `COCc1ccncc1-c1cc2cc(NC(=O)[C@H]3C[C@@H]3C#N)ncc2c(N)n1` (racemic) [Compound 228, (+/−)-trans-N-(8-amino-6-(4-(methoxymethyl)pyridin-3-yl)-2,7-naphthyridin-3-yl)-2-cyanocyclopropanecarboxamide]: 11 nM; `Cc1ccncc1-c1cc2cc(Nc3cnn(C(C)CO)c3)ncc2c(N)n1` (racemic) [Compound 213, (+/−)-2-(4-(8-amino-6-(4-methylpyridin-3-yl)-2,7-naphthyridin-3-ylamino)-1H-pyrazol-1-yl)propan-1-ol]: 0.957 nM.
In the case of `Cc1ccncc1-c1cc2cc(Nc3cc(C)n(CCO)n3)ncc2c(N)n1` [Compound 262, 2-(3-[[8-amino-6-(4-methylpyridin-3-yl)-2,7-naphthyridin-3-yl]amino]-5-methyl-1H-pyrazol-1-yl)ethan-1-ol], the Ki was found to be 0.439 nM.
For `N#CCc1ccncc1-c1cc2cc(NC(=O)[C@H]3C[C@@H]3C#N)ncc2c(N)n1` (racemic) [Compound 227, (+/−)-trans-N-(8-amino-6-(4-(cyanomethyl)pyridin-3-yl)-2,7-naphthyridin-3-yl)-2-cyanocyclopropanecarboxamide], the Ki was found to be 38.7 nM.
On the same count and under the same terms, next, `Cc1cc2[nH]c(=O)oc2cc1-c1cc2cc(NC(=O)[C@@H]3C[C@H]3c3cn[nH]c3)ncc2c(N)n1` (racemic) [Compound 144, (±)-trans-N-[8-amino-6-(5-methyl-2-oxo-3H-1,3-benzoxazol-6-yl)-2,7-naphthyridin-3-yl]-2-(1H-pyrazol-4-yl)cyclopropanecarboxamide]: 1.1 nM; `Cc1ccncc1-c1cc2cc(NC(=O)[C@H]3[C@@H]4CCC(C#N)[C@@H]43)ncc2c(N)n1` (stereo partly drawn) [Compound 230, (1R,5R,6S)—N-(8-amino-6-(4-methylpyridin-3-yl)-2,7-naphthyridin-3-yl)-2-cyanobicyclo[3.1.0]hexane-6-carboxamide]: 0.295 nM.
For the molecule `Cc1cc(-c2ccc[nH]c2=O)ncc1-c1cc2cc(NC(=O)[C@H]3C[C@H]3F)ncc2c(N)n1` (racemic) [Compound 167, (±)-cis-N-(8-amino-6-(4-methyl-6-(2-oxo-1,2-dihydropyridin-3-yl)pyridin-3-yl)-2,7-naphthyridin-3-yl)-2-fluorocyclopropanecarboxamide], the Ki was 9.4 nM.
For `CC(=O)N1CCC(n2cc(Nc3cc4cc(-c5cnccc5C)nc(N)c4cn3)cn2)C1` (racemic) [Compound 218, (+/−)-1-(3-(4-(8-amino-6-(4-methylpyridin-3-yl)-2,7-naphthyridin-3-ylamino)-1H-pyrazol-1-yl)pyrrolidin-1-yl)ethanone], the Ki was determined as 0.02 nM.
Still for that read-out and setting: next, `N#C[C@@H]1C[C@@H]1C(=O)Nc1cc2cc(-c3cncc4[nH]ccc34)nc(N)c2cn1` (racemic) [Compound 21, (±)-cis-N-(8-amino-6-(1H-pyrrolo[2,3-c]pyridin-4-yl)-2,7-naphthyridin-3-yl)-2-cyanocyclopropanecarboxamide]: 2.76 nM; `N#C[C@H]1C[C@@H]1C(=O)Nc1cc2cc(-c3cn[nH]c3C(F)(F)F)nc(N)c2cn1` (racemic) [Compound 132, (±)-trans-N-[8-amino-6-[5-(trifluoromethyl)-1H-pyrazol-4-yl]-2,7-naphthyridin-3-yl]-2-cyano-cyclopropanecarboxamide]: 6.5 nM; `CCc1ccncc1-c1cc2cc(NC(=O)NC(C)C(N)=O)ncc2c(N)n1` (racemic) [Compound 34, 2-[[8-amino-6-(4-ethyl-3-pyridyl)-2,7-naphthyridin-3-yl]carbamoylamino]propanamide]: 34 nM.
On the same count and under the same terms, next, `Cc1ccc(O)cc1-c1cc2cc(NC(=O)[C@H]3C[C@@H]3c3cnn(C)c3)ncc2c(N)n1` (racemic) [Compound 268, (+/−)-trans-N-[8-amino-6-(5-hydroxy-2-methylphenyl)-2,7-naphthyridin-3-yl]-2-(1-methyl-1H-pyrazol-4-yl)cyclopropane-1-carboxamide]: 0.147 nM; `Cc1ccncc1-c1nc(N)c2cnc(NC(=O)C3CC3)cc2c1C1=CC(O)CC1` (racemic) [Compound 204, N-(8-amino-5-(3-hydroxycyclopent-1-enyl)-6-(4-methylpyridin-3-yl)-2,7-naphthyridin-3-yl)cyclopropanecarboxamide]: 0.99 nM; `Cc1ccncc1-c1cc2cc(NC(=O)[C@H]3C[C@]34CCNC4)ncc2c(N)n1` (racemic) [Compound 126, (±)-cis-N-(8-amino-6-(4-methylpyridin-3-yl)-2,7-naphthyridin-3-yl)-5-azaspiro[2.4]heptane-1-carboxamide]: 7 nM.
For `Nc1nc(N2CCCC2CCO)cc2cc(NC(=O)[C@@H]3C[C@@H]3F)ncc12` (mixture of isomers) [Compound 54, (±)-cis-N-(8-amino-6-(2-(2-hydroxyethyl)pyrrolidin-1-yl)-2,7-naphthyridin-3-yl)-2-fluorocyclopropanecarboxamide], the Ki came to 48.9 nM.
The same measure, in the same setting: as for `Cc1ccncc1-c1cc2cc(NC(=O)[C@@H]3C[C@H]3C#N)ncc2c(N)n1` (racemic) [Compound 43, trans-N-(8-amino-6-(4-methylpyridin-3-yl)-2,7-naphthyridin-3-yl)-2-cyanocyclopropanecarboxamide], the figure is 2.05 nM.
`Cc1cc(C(=O)O)ncc1-c1cc2cc(NC(=O)[C@H]3C[C@@H]3c3cnn(C)c3)ncc2c(N)n1` (racemic) [Compound 342, (±)-trans-5-(1-amino-6-((1S,2S)-2-(1-methyl-1H-pyrazol-4-yl)cyclopropane-1-carboxamido)-2,7-naphthyridin-3-yl)-4-methylpicolinic acid]: the inhibition constant Ki turned out to be 1.43 nM.

Staying with this experiment, now noted: Table B1-2, read-out: HPK1 Ki, L = Lanth.
Turning to `Cc1cccc(CC#N)c1-c1cc2cc(NC(=O)[C@@H]3C[C@H]3c3cnn(C)c3)ncc2c(N)n1` (single isomer, unassigned) [Compound 381], the Ki amounted to 8.1 nM.
Regarding `Cc1cc(-n2cccn2)ncc1-c1cc2cc(NC(=O)[C@H]3C[C@@H]3c3cnn(C)c3)ncc2c(N)n1` (single isomer, unassigned) [Compound 398], the inhibitory constant (Ki) was 30 nM.
